Source: PMC10746543, “Design principles for cyclin K molecular glue degraders” (Nature Chemical Biology, 2023)
Values joined by “and” are separate entries in the source; they are usually repeats but may differ in a detail not shown here. Identical values can stand only once. Like-named read-outs stand apart in the source and are kept apart here.

Legend:
[1] = system: cyclin K–eGFP degradation reporter; experiment: Cyclin K reporter stability analysis (dual-color cyclin K–eGFP reporter); format: cell-based, human
Protocol: HEK293T–Cas9 cells expressing the cyclin K–eGFP degradation reporter were resuspended at 1 × 10^6 ml^−1 and 50 µl of cell suspension was seeded in non-cell-culture-treated 384-well plates. Shortly after, cells were treated with drug or DMSO for 5 h. […] The fluorescent signal was quantified by flow cytometry (LSRFortessa flow cytometer, BD Biosciences). Using FlowJo (flow cytometry analysis software, BD Biosciences), the geometric mean of the eGFP and mCherry fluorescent signal for round and mCherry-positive cells was calculated. The ratio of eGFP to mCherry was normalized to the average of three DMSO-treated controls.

[2] = molecular target: T1, CDK12–cyclin K and DDB1 (Homo sapiens, UniProt Q16531+Q9NYV4, K965R); experiment: TR-FRET ternary complex formation assay (compound titration); format: binding; conditions: for TR-FRET signal at compound concentration: replicate titrations
T1 construct: His6–CDK12 (a.a. 713–1,052); full-length or beta-propeller B domain deletion (ΔBPB: a.a. 396–705 deleted) constructs of His6–DDB1ΔBPB, StrepII–Avi–DDB1, or His6–Spy–DDB1; made in house; host or cells: Trichoplusia ni High Five insect cells (baculovirus)
T1 sequence (Q9NYV4 713-1052 K965R): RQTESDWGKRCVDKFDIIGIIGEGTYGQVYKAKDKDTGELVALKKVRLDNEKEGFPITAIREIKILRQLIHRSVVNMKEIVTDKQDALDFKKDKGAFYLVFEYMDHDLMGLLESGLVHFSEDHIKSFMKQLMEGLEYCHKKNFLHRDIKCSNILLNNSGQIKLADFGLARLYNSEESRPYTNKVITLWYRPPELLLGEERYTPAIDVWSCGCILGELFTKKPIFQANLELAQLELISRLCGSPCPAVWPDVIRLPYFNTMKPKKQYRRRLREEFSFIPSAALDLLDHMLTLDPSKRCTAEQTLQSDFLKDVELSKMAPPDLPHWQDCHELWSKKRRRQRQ
T1 sequence (O75909 1-267 partner): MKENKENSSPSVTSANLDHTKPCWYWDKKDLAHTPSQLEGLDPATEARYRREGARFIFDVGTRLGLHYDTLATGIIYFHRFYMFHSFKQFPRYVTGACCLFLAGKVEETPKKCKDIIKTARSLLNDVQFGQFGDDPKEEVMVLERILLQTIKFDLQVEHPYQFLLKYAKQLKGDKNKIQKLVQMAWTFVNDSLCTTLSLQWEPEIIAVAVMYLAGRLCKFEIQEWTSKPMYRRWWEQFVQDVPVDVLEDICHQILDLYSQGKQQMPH
T1 sequence (Q16531 whole entry): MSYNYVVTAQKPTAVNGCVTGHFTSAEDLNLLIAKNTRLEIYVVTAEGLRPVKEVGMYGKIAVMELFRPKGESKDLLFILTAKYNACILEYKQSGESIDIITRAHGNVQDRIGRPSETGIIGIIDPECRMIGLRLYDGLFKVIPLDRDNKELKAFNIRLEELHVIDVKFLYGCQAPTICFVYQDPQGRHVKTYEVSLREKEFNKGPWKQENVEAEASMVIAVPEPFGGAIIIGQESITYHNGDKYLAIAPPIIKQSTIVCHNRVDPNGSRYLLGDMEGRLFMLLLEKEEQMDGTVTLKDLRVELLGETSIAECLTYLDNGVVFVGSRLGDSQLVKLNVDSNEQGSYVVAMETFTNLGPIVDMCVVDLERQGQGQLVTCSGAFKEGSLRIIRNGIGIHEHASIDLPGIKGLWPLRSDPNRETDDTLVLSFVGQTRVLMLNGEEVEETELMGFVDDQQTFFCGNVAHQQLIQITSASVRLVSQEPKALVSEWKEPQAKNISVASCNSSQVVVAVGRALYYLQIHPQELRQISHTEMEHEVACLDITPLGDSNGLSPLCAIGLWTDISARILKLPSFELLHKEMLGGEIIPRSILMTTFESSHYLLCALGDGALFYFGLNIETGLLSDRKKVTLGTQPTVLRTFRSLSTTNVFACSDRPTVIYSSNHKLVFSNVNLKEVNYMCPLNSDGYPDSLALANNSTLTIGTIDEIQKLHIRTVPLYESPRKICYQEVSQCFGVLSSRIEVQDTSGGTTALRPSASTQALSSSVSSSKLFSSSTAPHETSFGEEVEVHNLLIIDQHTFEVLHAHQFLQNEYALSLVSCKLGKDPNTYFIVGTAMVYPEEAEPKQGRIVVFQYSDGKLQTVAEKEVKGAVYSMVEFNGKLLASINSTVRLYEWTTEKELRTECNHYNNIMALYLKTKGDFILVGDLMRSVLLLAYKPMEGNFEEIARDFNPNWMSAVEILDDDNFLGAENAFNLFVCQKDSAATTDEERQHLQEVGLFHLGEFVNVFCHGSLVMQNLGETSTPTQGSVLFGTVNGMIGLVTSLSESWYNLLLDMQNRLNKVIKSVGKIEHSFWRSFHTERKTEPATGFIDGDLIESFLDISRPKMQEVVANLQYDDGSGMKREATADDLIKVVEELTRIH
In short: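 Background fluorescence is reduced by reading 70 μs after excitation, and complex formation is followed as the 520:490 nm fluorescence ratio.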

[3] = system: HEK293T cells; experiment: Drug sensitivity assay (CellTiter-Glo viability) with or without MLN4924 pretreatment; format: cell-based, human; conditions: Supplementary Table 2; for EC50: Homo sapiens, HEK-293T, HEK293T viability, 72 h, compound alone, read-out: Cellular assays EC50; for Toxicity rescue: MLN4924-mediated cytotoxicity rescue, 10 µM used where n.d.
In short: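 First, cells (HEK293T–Cas9, 0.15 × 10^6 ml^−1) are exposed to DMSO or 100 nM MLN4924. Next, drugs follow at 2 h. Finally, CellTiter-Glo is read at day 3 and normalised to DMSO.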

[4] = Supplementary Table 2, HEK293T cycK-eGFP reporter, 5 h, read-out: Cellular assays DC50
[5] = compound concentration 79.2001 nM
[6] = compound concentration 158.4 nM
[7] = compound concentration 309.6 nM
[8] = compound concentration 626.401 nM
[9] = compound concentration 1252.8 nM
[10] = compound concentration 9936.01 nM
[11] = compound concentration 20016 nM
[12] = compound concentration 0.468 nM
[13] = compound concentration 7.92001 nM
[14] = compound concentration 15.84 nM
[15] = compound concentration 30.96 nM
[16] = compound concentration 62.6401 nM
[17] = compound concentration 125.28 nM
[18] = compound concentration 244.8 nM
[19] = compound concentration 993.601 nM
[20] = compound concentration 2001.6 nM
[21] = in vitro complex formation, 50 nM CDK12–cyclin K, 100 nM DDB1, text and figures, read-out: TR-FRET EC50

SMILES	DC50 [1, 4] [nM]	EC50 [3] [nM]	Toxicity rescue [3] [%]	TR-FRET signal at compound concentration [2, 12]	TR-FRET signal at compound concentration ([2]; compound concentration 2.16 nM)	TR-FRET signal at compound concentration ([2]; compound concentration 3.6 nM)	TR-FRET signal at compound concentration [2, 13]	TR-FRET signal at compound concentration [2, 14]	TR-FRET signal at compound concentration [2, 15]	TR-FRET signal at compound concentration [2, 16]	TR-FRET signal at compound concentration [2, 17]	TR-FRET signal at compound concentration [2, 18]	TR-FRET signal at compound concentration [2, 19]	TR-FRET signal at compound concentration [2, 20]	EC50 [2, 21] [nM]	also measured
CC[C@H](CO)Nc1nc(NC)c2ncn(C(C)C)c2n1 [DS23]	> 10000	> 10000	0													TR-FRET signal, individual replicate ([2]; compound concentration 4.68 nM): 0.1301 and 0.1411; TR-FRET signal, individual replicate ([2]; compound concentration 21.6 nM): 0.1343 and 0.1464; TR-FRET signal, individual replicate ([2]; compound concentration 36 nM): 0.1332 and 0.1524; TR-FRET signal, individual replicate [2, 5]: 0.1391 and 0.1534; TR-FRET signal, individual replicate [2, 6]: 0.1406 and 0.1374; TR-FRET signal, individual replicate [2, 7]: 0.0615 and 0.162; TR-FRET signal, individual replicate [2, 8]: 0.1683 and 0.1829; TR-FRET signal, individual replicate [2, 9]: 0.1869 and 0.2017; TR-FRET signal, individual replicate ([2]; compound concentration 2448 nM): 0.194 and 0.2082; TR-FRET signal, individual replicate [2, 10]: 0.2263 and 0.2491; TR-FRET signal, individual replicate [2, 11]: 0.2226 and 0.3132; DDB1–CDK12 complex formation, result in words ([2]; in vitro TR-FRET): did not appreciably promote the binding
CC[C@H](CO)Nc1nc(NCc2ccc(-c3ccccn3)c(F)c2)c2ncn(C(C)C)c2n1 [DS24]		794	270	0.1746 and 0.2408	0.2584 and 0.2684	0.3148 and 0.3094	0.4213 and 0.4118	0.6123 and 0.5731	1.004 and 0.9206	1.811 and 1.633	2.96 and 2.707	3.542 and 3.534	3.814 and 3.947	3.863 and 4.055	78 ± 2	DC50 ([1]; source data sheet correlations, read-out: DC50): 172 nM; EC50 ([2]; sheet MOESM7, read-out: log TR-FRET EC50 (converted)): 78.2 nM; EC50 ([2]; source data sheet correlations, read-out: TR-FRET EC50): 78.2 nM
CC[C@H](CO)Nc1nc(NCc2ccc(-c3ccc(C)s3)cc2)c2ncn(C(C)C)c2n1 [DS25]	90	267	795	0.2617 and 0.2677	0.4243 and 0.428	0.7393 and 0.7415	1.2835 and 1.267	1.9468 and 1.95	2.593 and 2.662	3.101 and 3.186	3.361 and 3.544	3.469 and 3.727	3.278 and 3.742	3.339 and 3.592	15 ± 1	EC50 ([2]; Supplementary Table 2, read-out: TR-FRET EC50 TR-FRET): 15 nM
CC[C@H](CO)Nc1nc(NCCCc2ccncc2)c2ncn(C(C)C)c2n1 [DS27]	> 10000	> 10000	0												456 ± 34	TR-FRET signal at compound concentration ([2]; compound concentration 4.68 nM): 0.135 and 0.1336; TR-FRET signal at compound concentration ([2]; compound concentration 21.6 nM): 0.1436 and 0.1394; TR-FRET signal at compound concentration ([2]; compound concentration 36 nM): 0.1546 and 0.1561; TR-FRET signal at compound concentration [2, 5]: 0.1838 and 0.187; TR-FRET signal at compound concentration [2, 6]: 0.2226 and 0.2249; TR-FRET signal at compound concentration [2, 7]: 0.2777 and 0.285; TR-FRET signal at compound concentration [2, 8]: 0.3467 and 0.3568; TR-FRET signal at compound concentration [2, 9]: 0.4111 and 0.4466; TR-FRET signal at compound concentration ([2]; compound concentration 2448 nM): 0.4906 and 0.4799; TR-FRET signal at compound concentration [2, 10]: 0.5278 and 0.4844; TR-FRET signal at compound concentration [2, 11]: 0.4733 and 0.5319
